Test results reported in ChEMBL document CHEMBL1201862, “PubChem BioAssay data set” (2004).
The source made the active and inactive calls.

Assays:
[1] = biological target: Cytochrome P450 2C19 (Homo sapiens, UniProt P33261); experiment: Cytochrome panel assay with activity outcomes. Panel member name: p450-cyp2c19 Compounds with AC50 equal or less than 10 uM are considered active; assay type: functional; conditions: read-out: AC50
[2] = biological target: Cytochrome P450 2D6 (Homo sapiens, UniProt P10635);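 further: CYP2D6 member of a cytochrome P450 panel assay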
[3] = biological target: Eukaryotic translation initiation factor 4E (Mus musculus, UniProt P63073); experiment: eIF4E–eIF4G protein interaction inhibitors, dose response, biochemical, TR-FRET (AID 855); assay type: functional;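 further: potency for disrupting eIF4E binding to eIF4GI seen as loss of FRET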
[4] = biological target: T1, Calpain-2 catalytic subunit (Sus scrofa, UniProt P43367); experiment: pig calpain II inhibitor potency, dose response, biochemical, fluorogenic peptide substrate (AID 1420); assay type: functional
T1 sequence (P43367 whole entry): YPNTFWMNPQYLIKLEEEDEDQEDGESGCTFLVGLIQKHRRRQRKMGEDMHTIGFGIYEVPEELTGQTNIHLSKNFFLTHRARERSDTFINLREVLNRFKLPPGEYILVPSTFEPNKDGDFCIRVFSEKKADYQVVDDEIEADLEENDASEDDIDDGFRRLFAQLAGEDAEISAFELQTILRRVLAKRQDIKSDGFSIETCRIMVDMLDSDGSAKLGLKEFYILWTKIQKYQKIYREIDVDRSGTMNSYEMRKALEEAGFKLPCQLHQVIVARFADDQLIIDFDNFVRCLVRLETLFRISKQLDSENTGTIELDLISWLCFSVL

[5] = inhibitors of clade B AD8 Env fusion, dose response, cell-based, cherry-pick (AID 652062); assay type: functional;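 further: luciferase signal from cell-cell fusion driven by HIV-1 clade B AD8 Env; potency is for inhibitors of fusion seen as a drop in luminescence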
[6] = inhibitors of HIV Env-driven cell fusion, dose response, cherry-pick (AID 652057); assay type: functional, cell-based
[7] = ZM109 Env clade C HIV-1 fusion inhibitors, dose response, HeLa effector, CEM target cells, luciferase, cherry-pick (AID 652058); assay type: functional, cell-based
[8] = test system: INS1; experiment: beta cell apoptosis inhibitors, cytokine rescue, dose response, luminescence, retest (AID 449756); assay type: functional, cell-based; conditions: Rattus norvegicus;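 further: cell death triggered by IL-1 beta plus TNF-alpha plus IFN-gamma mixture; protective hits raise ATP signal compared with cytokine alone wells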
[9] = biological target: T2, Rac GTPase-activating protein 1 (Homo sapiens, UniProt Q9H0H5); experiment: MgcRacGAP GTPase-activating activity inhibitors, confirmation, biochemical, ADP Hunter fluorescence, primary and confirmatory (AID 624330); assay type: functional
T2 sequence (Q9H0H5 whole entry): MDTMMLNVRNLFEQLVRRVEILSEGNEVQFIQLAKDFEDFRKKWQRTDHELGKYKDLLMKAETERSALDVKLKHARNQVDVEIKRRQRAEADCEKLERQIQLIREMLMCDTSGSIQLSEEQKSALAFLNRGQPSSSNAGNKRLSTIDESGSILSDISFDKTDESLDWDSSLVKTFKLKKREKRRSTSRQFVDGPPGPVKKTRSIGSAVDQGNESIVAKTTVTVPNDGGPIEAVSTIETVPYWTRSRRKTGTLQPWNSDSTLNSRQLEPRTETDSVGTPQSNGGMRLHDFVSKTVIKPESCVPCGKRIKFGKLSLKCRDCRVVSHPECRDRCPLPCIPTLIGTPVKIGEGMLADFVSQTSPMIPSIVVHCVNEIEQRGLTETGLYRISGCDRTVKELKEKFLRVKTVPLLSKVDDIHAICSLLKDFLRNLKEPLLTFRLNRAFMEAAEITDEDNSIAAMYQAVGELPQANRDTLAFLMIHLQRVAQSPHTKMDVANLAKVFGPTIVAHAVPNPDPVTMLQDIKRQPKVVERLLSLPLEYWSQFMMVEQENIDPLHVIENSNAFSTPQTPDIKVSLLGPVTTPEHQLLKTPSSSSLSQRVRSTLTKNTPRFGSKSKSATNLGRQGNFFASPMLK

[10] = biological target: Large T antigen (Simian virus 40, UniProt P03070); assay type: functional, Betapolyomavirus macacae;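 further: Confirmatory-stage PubChem screen for compounds that inhibit SV40 T antigen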
[11] = biological target: Cytochrome P450 2C9 (Homo sapiens, UniProt P11712)
[12] = biological target: T3, Zinc finger protein mex-5 (Caenorhabditis elegans, UniProt Q9XUB2); experiment: MEX-5/TCR-2 RNA interaction inhibitors, dose response, biochemical, C. elegans, fluorescence polarization (AID 1960)
T3 sequence (Q9XUB2 whole entry): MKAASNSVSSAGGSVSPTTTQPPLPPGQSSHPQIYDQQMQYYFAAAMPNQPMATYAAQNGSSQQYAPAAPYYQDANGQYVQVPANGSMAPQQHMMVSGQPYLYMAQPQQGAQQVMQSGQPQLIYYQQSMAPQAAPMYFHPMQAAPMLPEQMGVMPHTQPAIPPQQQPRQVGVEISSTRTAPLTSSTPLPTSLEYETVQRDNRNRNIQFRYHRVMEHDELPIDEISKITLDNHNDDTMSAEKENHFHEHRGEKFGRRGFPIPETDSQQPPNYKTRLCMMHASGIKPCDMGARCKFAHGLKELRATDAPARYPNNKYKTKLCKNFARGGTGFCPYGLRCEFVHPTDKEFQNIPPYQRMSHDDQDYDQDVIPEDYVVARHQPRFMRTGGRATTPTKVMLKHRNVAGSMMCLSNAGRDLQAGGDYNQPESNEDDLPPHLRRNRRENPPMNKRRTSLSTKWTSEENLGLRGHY

[13] = biological target: T4, RNA-binding protein pos-1 (Caenorhabditis elegans, UniProt G5EF15); experiment: inhibitors of POS-1/mex-3 RNA binding, dose response, biochemical, fluorescence polarization (AID 1964);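 further: purified POS-1 fused to maltose binding protein made in E. coli; potency of compounds blocking POS-1 binding to fluorescent RNA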
T4 sequence (G5EF15 whole entry): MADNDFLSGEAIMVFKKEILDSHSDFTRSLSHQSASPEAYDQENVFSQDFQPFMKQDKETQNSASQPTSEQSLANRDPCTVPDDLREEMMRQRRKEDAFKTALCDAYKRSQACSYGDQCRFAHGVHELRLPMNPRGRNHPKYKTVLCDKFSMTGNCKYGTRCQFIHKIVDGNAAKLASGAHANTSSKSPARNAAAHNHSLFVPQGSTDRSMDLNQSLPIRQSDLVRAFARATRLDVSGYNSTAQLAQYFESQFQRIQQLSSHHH

[14] = biological target: Cytochrome P450 3A4 (Homo sapiens, UniProt P08684); conditions: Potency;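 further: confirmatory qHTS run detecting inhibitors and substrates of CYP3A4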
[15] = test system: BJ; experiment: cytotoxicity toward BJ-TERT-LT-ST fibroblasts, dose response, cell-based, RAS-independent, luminescence (AID 1935); assay type: functional; conditions: Homo sapiens;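 further: BJ fibroblasts immortalized with TERT plus LT and ST oncogenes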
[16] = test system: BJ; experiment: cytotoxicity toward BJ-TERT fibroblasts, dose response, cell-based, RAS-independent, luminescence (AID 1933); assay type: functional; conditions: Homo sapiens
[17] = cytotoxicity toward DRD oncogenic fibroblasts, dose response, cell-based, non-viral oncogenic, luminescence (AID 1934); assay type: functional; conditions: Homo sapiens
[18] = test system: BJ; experiment: cells; assay type: functional, cell-based; conditions: Homo sapiens
[19] = biological target: T5, Corticotropin-releasing factor receptor 2/Corticotropin-releasing factor-binding protein (Homo sapiens, UniProt P24387+Q13324); experiment: activators of CRF receptor 2 with binding protein – uHTS hits, confirmation (AID 602473); assay type: functional; conditions: read-out: EC50_Mean
T5 sequence (Q13324 whole entry): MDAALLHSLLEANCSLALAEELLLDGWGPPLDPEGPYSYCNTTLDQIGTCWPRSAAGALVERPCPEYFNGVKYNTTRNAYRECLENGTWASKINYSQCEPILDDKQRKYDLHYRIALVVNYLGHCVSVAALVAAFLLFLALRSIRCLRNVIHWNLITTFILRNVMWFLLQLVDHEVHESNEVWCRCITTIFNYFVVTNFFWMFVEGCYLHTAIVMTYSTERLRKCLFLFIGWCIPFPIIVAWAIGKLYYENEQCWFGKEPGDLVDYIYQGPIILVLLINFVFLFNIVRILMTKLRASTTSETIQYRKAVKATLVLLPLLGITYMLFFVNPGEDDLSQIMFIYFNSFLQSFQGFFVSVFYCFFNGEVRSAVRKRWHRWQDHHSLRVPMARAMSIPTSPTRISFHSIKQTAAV
T5 sequence (P24387 whole entry): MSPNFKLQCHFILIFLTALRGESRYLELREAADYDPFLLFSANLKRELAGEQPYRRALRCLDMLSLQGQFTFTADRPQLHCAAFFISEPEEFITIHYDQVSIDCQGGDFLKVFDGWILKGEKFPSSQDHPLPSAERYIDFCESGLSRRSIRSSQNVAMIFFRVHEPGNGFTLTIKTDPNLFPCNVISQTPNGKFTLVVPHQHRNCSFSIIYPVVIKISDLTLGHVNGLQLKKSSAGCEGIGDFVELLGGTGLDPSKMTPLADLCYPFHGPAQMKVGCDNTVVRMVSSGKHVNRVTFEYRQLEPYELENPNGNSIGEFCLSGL

[20] = biological target: T5, Corticotropin-releasing factor receptor 2/Corticotropin-releasing factor-binding protein; experiment: Dose Response confirmation of uHTS hits for small molecule antagonists of the CRF-binding protein and CRF-R2 receptor complex.; assay type: functional; conditions: read-out: IC50_Mean
[21] = biological target: Luciferin 4-monooxygenase (Photinus pyralis, UniProt P08659); experiment: firefly luciferase enzyme inhibitors, dose response, biochemical, luminescence (AID 1891)
[22] = Luminescence Cell-Based Dose Confirmation HTS to Identify Inhibitors of Platelet Dense Granule Release. [Related pubchem assays: 1663 (Primary HTS), 1678 (Summary of Project)]; assay type: functional

Sequence of Cytochrome P450 2C19 (P33261 whole entry): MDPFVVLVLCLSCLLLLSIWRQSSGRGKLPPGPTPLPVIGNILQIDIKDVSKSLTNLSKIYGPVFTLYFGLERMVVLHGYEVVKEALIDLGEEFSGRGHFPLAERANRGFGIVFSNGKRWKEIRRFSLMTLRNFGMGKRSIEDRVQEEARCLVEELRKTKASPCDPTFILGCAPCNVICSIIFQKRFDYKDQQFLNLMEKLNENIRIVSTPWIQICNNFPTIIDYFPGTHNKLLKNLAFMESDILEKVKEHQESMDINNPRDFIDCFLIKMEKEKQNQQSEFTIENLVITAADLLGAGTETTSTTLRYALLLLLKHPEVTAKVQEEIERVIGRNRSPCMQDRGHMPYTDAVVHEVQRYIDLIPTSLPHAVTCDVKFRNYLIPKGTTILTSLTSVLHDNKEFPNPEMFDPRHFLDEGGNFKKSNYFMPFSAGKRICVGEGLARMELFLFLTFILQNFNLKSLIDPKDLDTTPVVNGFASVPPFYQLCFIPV
Sequence of Cytochrome P450 2C9 (P11712 whole entry): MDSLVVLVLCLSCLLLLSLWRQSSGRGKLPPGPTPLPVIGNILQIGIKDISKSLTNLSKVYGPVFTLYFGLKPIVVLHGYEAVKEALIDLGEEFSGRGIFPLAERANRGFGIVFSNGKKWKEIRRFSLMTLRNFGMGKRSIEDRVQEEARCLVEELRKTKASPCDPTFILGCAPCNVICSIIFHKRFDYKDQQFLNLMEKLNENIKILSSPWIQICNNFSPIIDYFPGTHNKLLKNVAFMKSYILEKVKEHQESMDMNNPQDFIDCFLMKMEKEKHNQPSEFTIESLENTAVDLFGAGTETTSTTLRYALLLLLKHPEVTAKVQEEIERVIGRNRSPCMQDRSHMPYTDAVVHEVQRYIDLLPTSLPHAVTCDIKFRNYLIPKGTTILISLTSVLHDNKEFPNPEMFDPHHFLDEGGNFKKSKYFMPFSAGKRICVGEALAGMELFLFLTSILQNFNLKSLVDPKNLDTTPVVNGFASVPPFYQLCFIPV
Sequence of Large T antigen (P03070 whole entry): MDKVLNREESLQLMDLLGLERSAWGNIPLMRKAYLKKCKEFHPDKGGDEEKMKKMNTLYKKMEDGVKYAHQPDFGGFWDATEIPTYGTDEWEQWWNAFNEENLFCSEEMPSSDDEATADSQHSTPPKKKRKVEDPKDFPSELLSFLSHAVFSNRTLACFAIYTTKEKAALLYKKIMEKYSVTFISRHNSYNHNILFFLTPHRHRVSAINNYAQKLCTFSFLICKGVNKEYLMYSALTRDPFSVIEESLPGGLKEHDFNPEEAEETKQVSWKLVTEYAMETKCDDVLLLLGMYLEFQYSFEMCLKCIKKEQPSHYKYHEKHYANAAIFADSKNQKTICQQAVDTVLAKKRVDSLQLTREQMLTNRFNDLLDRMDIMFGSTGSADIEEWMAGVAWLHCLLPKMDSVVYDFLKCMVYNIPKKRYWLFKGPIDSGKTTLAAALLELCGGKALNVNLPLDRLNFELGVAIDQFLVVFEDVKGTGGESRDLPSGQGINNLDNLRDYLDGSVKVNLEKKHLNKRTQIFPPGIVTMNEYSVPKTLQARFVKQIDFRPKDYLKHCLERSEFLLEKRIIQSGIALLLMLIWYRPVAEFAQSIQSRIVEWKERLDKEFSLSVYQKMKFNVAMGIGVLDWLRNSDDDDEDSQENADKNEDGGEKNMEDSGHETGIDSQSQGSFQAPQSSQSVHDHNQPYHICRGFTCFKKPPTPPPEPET
Sequence of Eukaryotic translation initiation factor 4E (P63073 whole entry): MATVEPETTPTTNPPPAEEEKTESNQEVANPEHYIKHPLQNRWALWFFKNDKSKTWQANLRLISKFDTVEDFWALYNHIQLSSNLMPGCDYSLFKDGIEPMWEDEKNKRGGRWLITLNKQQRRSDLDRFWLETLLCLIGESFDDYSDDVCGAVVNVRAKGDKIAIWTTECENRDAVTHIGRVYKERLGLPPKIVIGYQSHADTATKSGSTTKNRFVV
Sequence of Cytochrome P450 2D6 (P10635 whole entry): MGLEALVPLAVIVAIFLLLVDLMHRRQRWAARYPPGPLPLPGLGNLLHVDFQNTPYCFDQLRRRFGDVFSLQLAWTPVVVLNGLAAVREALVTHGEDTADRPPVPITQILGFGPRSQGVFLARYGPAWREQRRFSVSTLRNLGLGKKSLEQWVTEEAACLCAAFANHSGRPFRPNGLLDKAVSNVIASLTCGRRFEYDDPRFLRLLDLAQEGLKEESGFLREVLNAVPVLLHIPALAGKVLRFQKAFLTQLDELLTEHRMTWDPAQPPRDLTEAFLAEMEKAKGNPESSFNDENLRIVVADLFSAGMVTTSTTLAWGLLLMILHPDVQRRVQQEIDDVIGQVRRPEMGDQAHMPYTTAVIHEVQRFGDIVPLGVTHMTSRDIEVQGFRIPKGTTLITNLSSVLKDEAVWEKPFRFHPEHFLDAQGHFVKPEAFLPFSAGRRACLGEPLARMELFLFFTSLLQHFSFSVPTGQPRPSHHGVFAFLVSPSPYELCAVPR
Sequence of Cytochrome P450 3A4 (P08684 whole entry): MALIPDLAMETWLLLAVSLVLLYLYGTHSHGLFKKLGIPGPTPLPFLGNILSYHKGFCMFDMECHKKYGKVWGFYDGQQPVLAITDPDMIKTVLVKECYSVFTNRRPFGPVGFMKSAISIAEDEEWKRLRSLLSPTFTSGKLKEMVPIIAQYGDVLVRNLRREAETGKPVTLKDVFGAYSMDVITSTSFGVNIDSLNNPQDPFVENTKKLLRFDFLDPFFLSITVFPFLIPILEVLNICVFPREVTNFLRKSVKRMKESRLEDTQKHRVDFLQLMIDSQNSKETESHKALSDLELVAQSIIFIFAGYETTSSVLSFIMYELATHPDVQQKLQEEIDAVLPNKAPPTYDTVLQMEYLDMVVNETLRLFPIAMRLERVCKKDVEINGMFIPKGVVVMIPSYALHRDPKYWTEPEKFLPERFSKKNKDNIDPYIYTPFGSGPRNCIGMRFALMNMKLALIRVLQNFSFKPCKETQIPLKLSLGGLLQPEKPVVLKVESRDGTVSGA
Sequence of Luciferin 4-monooxygenase (P08659 whole entry): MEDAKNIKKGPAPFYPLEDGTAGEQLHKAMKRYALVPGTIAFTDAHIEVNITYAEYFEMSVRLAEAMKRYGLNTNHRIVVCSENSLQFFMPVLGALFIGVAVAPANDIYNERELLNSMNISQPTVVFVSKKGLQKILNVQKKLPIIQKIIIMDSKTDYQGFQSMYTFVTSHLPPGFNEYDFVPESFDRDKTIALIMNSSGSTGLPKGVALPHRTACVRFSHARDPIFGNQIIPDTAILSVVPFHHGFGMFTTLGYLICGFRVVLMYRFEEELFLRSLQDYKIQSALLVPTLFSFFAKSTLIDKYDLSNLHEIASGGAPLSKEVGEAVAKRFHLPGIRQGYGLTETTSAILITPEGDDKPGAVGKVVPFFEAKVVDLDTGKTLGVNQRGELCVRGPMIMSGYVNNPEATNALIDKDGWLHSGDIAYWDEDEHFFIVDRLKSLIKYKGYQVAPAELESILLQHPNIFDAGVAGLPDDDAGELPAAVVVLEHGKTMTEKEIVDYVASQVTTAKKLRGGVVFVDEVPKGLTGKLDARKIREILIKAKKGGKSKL

Cc1noc(C)c1-c1nc(Nc2ccncc2)c2ccccc2n1
AC50 [1]: 31.6 µM (inconclusive) | AC50 [2]: 12.6 µM (inconclusive)

Cn1nccc1C(=O)Nc1ccc(Cl)cc1
AC50 [2]: 0.282 µM (inconclusive)

Cc1c(C(=O)N2CCCCC2)nn(-c2ccc(Cl)cc2)c(=O)c1C#N
IC50 [3]: 50 µM (inactive)

Cc1ccc([N+](=O)[O-])cc1NC(=O)C[n+]1ccccc1
IC50 [4]: > 50 µM (not active)

Cc1nn(-c2ccc(Cl)c(Cl)c2Cl)c(=O)c2ccccc12
IC50 [4]: 22.8 µM (not active)

COc1ccccc1CNc1nc(-c2cc(C)n(C)c2C)cs1
IC50 [3]: 50 µM (inactive)

C[C@H](CO)N1C[C@H](C)[C@H](CN(C)S(=O)(=O)c2cccs2)Oc2ccc(NC(=O)Nc3cccc4ccccc34)cc2CC1=O
AC50 [5]: < 0.26 µM (active) | AC50 [6]: < 0.26 µM (active) | AC50 [7]: < 0.26 µM (active)

Nc1c(N(CCC2=CCCCC2)C(=O)COc2ccc(F)cc2)c(=O)[nH]c(=O)n1Cc1ccccc1
AC50 [8]: 4.49 µM (active)

CCN(CC)c1ccc(/C=N/N2CCOCC2)cc1
IC50 [9]: 40.8 µM (active) | IC50 [10]: 5.98 µM (active)

COc1cccc(-c2ccc3ncnc(NCc4ccc(OC)cc4OC)c3c2)c1
AC50 [11]: 0.501 µM (inconclusive) | AC50 [2]: 20 µM (inconclusive)

CCOc1ccc(N2C(=O)/C(=C/c3ccc(C)o3)C(=O)NC2=S)cc1
EC50 [12]: > 300 µM (not active) | EC50 [13]: > 300 µM (not active) | IC50 [10]: 49.9 µM (active)

COC(=O)[C@@H]1C[C@@]2(O)[C@H](O)[C@H](O)[C@H](O)C[C@H]2N1Cc1cccnc1
AC50 [14]: 31.6 µM (inconclusive)

CN1CCN(c2cc(N3CCCC3)c([N+](=O)[O-])cc2F)CC1
AC50 [11]: 0.1 µM (inconclusive) | AC50 [2]: 14.1 µM (inconclusive)

COC(=O)c1ccc(C23CC4(C2)[C@H](CN(CC2CCCCC2)[C@@H]4c2ccccc2)C3c2ccc(C(F)(F)F)cc2)cc1 (some centres not stated)
AC50 [14]: 15.8 µM (inconclusive)

Cc1cc(N2CCN(Cc3cn(C)nc3-c3ccccc3F)CC2)cc(C)n1
EC50 [15]: 14.9 µM (active) | EC50 [16]: 10.1 µM (active) | EC50 [17]: 16.3 µM (inconclusive) | EC50 [18]: 101 µM (inconclusive)

Cc1cccc(NC(=O)c2cc(S(=O)(=O)c3ccccc3)ccc2Cl)c1
IC50 [4]: 7.13 µM (not active) | EC50 [19]: > 53 µM (inactive) | IC50 [20]: 3.47 µM (active)

COc1ccc2c(c1)OCc1c-2oc2cc(OC)ccc12 [DEHYDROVARIABILIN]
AC50 [14]: 39.8 µM (inconclusive)

Cc1nn(Cc2ccc(Cl)cc2Cl)c(C)c1NC(=O)c1nn(C)cc1Cl
IC50 [4]: 0.917 µM (not active)

CN(C)c1ccc2nc3c(C(=O)O)cc(=O)c(O)c-3oc2c1
AC50 [1]: 2.51 µM (inconclusive) | AC50 [2]: 3.16 µM (inconclusive)

COc1cc(NC(=O)c2ccccc2)c(OC)cc1NC(=O)CSc1nc(O)cc(C)c1C#N
EC50 [21]: > 112 µM (not active) | EC50 [22]: 1.21 µM (active) | EC50 [15]: > 150 µM (not active) | EC50 [16]: 73.6 µM (inconclusive) | EC50 [17]: 34.7 µM (active) | EC50 [18]: 36 µM (inconclusive)

c1cc2c3c(c1)ccc1cccc(c13)C2
AC50 [14]: 25.1 µM (inconclusive)

CC(=O)NC1(c2ccccc2)CCN(C(=O)N2CCOCC2)CC1
IC50 [4]: 7.15 µM (not active)

COc1cc2c(cc1OC)C1Cc3ccc(OC)c(OC)c3CN1CC2 (configuration not stated)
AC50 [14]: 31.6 µM (inconclusive)

CN1CCN(NC(=O)c2cccc(F)c2)CC1
AC50 [1]: 39.8 µM (inconclusive) | AC50 [11]: 0.355 µM (inconclusive) | AC50 [2]: 39.8 µM (inconclusive)

O=S1(=O)N=C(Nc2ccc(O)cc2)c2ccccc21
IC50 [9]: 22.3 µM (active) | IC50 [10]: 5.09 µM (active)

Cn1cc(C2=C(c3cn(CCCSC(=N)N)c4ccccc34)C(=O)NC2=O)c2ccccc21
AC50 [14]: 6.31 µM (inconclusive)

CC(=O)N1CC=CC1(CC(C)C)C(=O)NCc1ccccn1 (configuration not stated)
AC50 [14]: 20 µM (inconclusive)

O=C(Oc1ccc(=O)n(-c2ccccc2)n1)c1cccc(Cl)c1
IC50 [3]: > 64 µM (inactive)

Cc1cc(NC(=O)c2noc3c2CCc2ccccc2-3)n(-c2ccccc2)n1
IC50 [3]: > 64 µM (inactive)

CC(=O)[C@@H]1[C@H]2[C@H](C(=O)[C@H]3OC[C@@H]2O3)[C@H]2C=Cc3ccccc3N21
AC50 [14]: 25.1 µM (inconclusive)

COC(=O)CCC(C)C1CCC2C3C(O)C[C@@H]4CC(O)CC[C@@]4(C)C3CC(O)[C@]12C (some centres not stated)
AC50 [14]: 20 µM (inconclusive)

COc1cc(/C=N/NC(=O)C(=O)NCC2CCCO2)ccc1O (configuration not stated)
IC50 [9]: 32.3 µM (active) | IC50 [10]: 11.7 µM (active)

CN(C)c1ccc(NC(N)=S)cc1
IC50 [10]: 7.29 µM (active)

CCOC(=O)N1CCC(Nc2ccc(N3C(=O)C4CCCCC4C3=O)cc2[N+](=O)[O-])CC1 (configuration not stated)
IC50 [4]: 7.24 µM (active)
